Several values for one entry are separate records, joined by “and”; a condition that tells them apart may be missing. Identical values can stand only once. Like-named read-outs stand apart in the source and are kept apart here.
Key:
PGE2 = assay: Prostaglandin E2 (PGE2) measurement in aqueous humor; type: in vivo, Rabbit; details: for PGE2 in aqueous humor at the second paracentesis, Mean: group mean; for PGE2 in aqueous humor at the second paracentesis: individual eye sample, listed as BOL; for PGE2 in aqueous humor, statistical comparison with CTR: p<0.05
Protocol: Each rabbit was placed in a restraint device and tagged with the alphanumeric code. The formulations were instilled (50 μl) into the conjunctival sac of both eyes 180, 120, 90 and 30 min before the first paracentesis; then 15, 30, 90 min after the first paracentesis. To perform the first paracentesis the animals were anaesthetized by intravenous injection of 5 mg/kg Zoletil® (Virbac; 2.5 mg/kg tiletamine HCl and 2.5 mg/kg zolazepam HCl) and one drop of local anesthetic (Novesina®, Novartis) was administered to the eye. Anterior chamber paracentesis was performed with a 26 G needle attached to a tuberculin syringe; the needle was introduced into the anterior chamber through the cornea, taking care not to damage the tissues. Two hours after the first paracentesis, the animals were sacrificed with 0.4 ml Tanax® (Intervet International B.V.) and the second paracentesis was performed. About 100 μl of aqueous humor were removed at the second paracentesis. Aqueous humor was immediately split in four aliquots and stored at −80° C. until analysis. Then both eyes were enucleated and the iris-ciliary body was carefully excised, placed in polypropylene tubes, and stored at −80° C. until analysis.
For the quantitative determination of PGE2 in the aqueous humor we used the PGE2 Immunoassay kit (R&D Systems; Cat. No. KGE004; Lot. No. 240010). Eleven microliters or 16 μl of aqueous humor were diluted to 110 μl or 160 μl with the calibrator diluent solution provided with the kit. One hundred microliters of samples and of standards were load into a 96-well plate and recorded in a plate layout. Samples were treated following the assay procedure described in the kit. A microplate reader (GDV, Italy; model DV 990 B/V6) set at 450 nm (wavelength correction at 540 nm) was used for making the calibration and analyzing the samples.

[1] = molecular target: human glucocorticoid receptor (Homo sapiens, UniProt P04150); details: Schacke et al. [26]; cited from earlier work
Chain of human glucocorticoid receptor (P04150 whole entry): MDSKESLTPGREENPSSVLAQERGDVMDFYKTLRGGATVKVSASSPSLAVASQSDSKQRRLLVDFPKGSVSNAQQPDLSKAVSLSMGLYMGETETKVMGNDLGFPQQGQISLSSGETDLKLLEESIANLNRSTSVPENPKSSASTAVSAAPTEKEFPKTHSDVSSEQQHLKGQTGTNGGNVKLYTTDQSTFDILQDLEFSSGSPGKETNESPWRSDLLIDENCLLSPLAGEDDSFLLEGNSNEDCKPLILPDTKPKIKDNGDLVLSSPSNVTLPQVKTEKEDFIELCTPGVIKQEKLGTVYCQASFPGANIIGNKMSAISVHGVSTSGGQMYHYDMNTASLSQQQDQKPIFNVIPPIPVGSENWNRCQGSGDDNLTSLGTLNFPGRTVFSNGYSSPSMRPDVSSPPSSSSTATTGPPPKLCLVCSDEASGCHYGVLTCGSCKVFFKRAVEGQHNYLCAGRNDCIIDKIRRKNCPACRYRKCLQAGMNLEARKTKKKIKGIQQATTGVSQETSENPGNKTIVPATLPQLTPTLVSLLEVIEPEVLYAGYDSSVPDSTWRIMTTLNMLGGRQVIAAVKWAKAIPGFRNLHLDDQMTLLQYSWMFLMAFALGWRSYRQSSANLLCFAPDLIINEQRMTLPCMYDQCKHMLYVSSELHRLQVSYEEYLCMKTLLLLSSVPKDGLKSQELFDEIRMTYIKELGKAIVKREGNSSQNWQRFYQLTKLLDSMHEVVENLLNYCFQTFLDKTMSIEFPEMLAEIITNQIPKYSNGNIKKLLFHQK

human HMC-1 cells = assay: Ionomycin-induced cytokine/chemokine release in HMC-1 cells (Luminex); type: cell-based; details: HMC1, 18 h after ionomycin, 95% confidence limits in brackets
Protocol: A human mast cell line (HMC-1), a kind gift from Prof.
After 18 h stimulation at 37° C. in a 5% CO2 atmosphere, Interleukin-8 (IL-8) was measured in supernatants obtained from […] with a commercial ELISA kit from R&D Systems. The threshold sensitivity was 5 pg/ml and the inter- and intra-assay variations were less than 5%. The supernatants obtained from HMC-1 cells were aliquoted in duplicates for interleukin-6 (IL-6), IL-8, chemokine (C-C motif) ligand 5 (CCL5)/regulated upon activation, normal T-cell expressed and secreted (RANTES) and tumor necrosis factor-α (TNF-α) analysis using a high-throughput multiplex Luminex technology (Luminex 200 System; Luminex, Austin, Tx, USA) and Beadview software version 1.0 (Upstate Cell Signaling Solutions, Temecula, Calif.). Standard curves for known concentrations of recombinant human cytokines were used to convert median fluorescence intensities to cytokine concentrations in pg/ml. Only the linear portions of the standard curves were used to quantify cytokine concentrations, and in instances where the fluorescence reading exceeded the linear range of the standard curve, an appropriate dilution was performed to ensure that the concentration was in the linear portion of the curve.
The effect of BOL-303242-X on secretion of the reported cytokines and chemokines, 18 h after ionomycin ([…]) stimulation of HMC-1 cells, was determined in comparison to dexamenthasone. Compounds (1 nM-1000 nM) were added 45 min before ionomycin. Values were calculated by analyzing at least three separated experiments where concentration-response curves were measured. ^a95% Confidence limits.

[2] = system: primary human conjunctival epithelial cells (HConEpiC); assay: IL-4 and TNF-α-induced cytokine release in HConEpiC (Luminex); type: cell-based; details: 24 h
Protocol: Primary human conjunctival epithelial cells (HConEpiC) were seeded in two 24-well plates in EpiLife medium+1% Human Corneal Growth Supplement (HCGS; contains bovine pituitary extract, bovine insulin, hydrocortisone, bovine transferrin and mouse epidermal growth factor) at 2×10^4 cells/well. When the cells were confluent (4-5 days after seeding), they were incubated in EpiLife GF medium without glucocorticoids (EpiLife basic medium supplemented with 50 μg/ml bovine pituitary extract, 5 μg/ml bovine insulin and 5 ng/ml mouse epidermal growth factor) for 18 h. […] Culture medium was collected. Cytokine analysis was performed on the culture medium using 2 separate cytokine/chemokine Luminex kits (Kit 1: G-CSF, GM-CSF, IL-6, IL-8, IP-10, MCP-1, RANTES; Kit 2: eotaxin-3, CTACK). ICAM-1 expression was determined in cell lysates using a Luminex kit.
Median fluorescence intensity (MFI) was used to obtain the concentration of each cytokine and ICAM-1 in pg/ml based on the standard curve of each cytokine assayed by Luminex using the StatLIA software. ICAM-1 expression was expressed as pg/mg protein. All data were expressed as mean±SEM. Statistical analysis was performed using a two-way ANOVA-Contrast test with Factor 1 being drug and Factor 2 being dose (JMP 8 software, SAS Institute, Cary, N.C.). P<0.05 was considered statistically significant. Data were analyzed either directly or after Box-Cox transformations (9, 10).

normotensive rabbits = details: topical eye drops, normotensive rabbits [27]; cited from earlier work

## Cc1ccc2c(NC[C@](O)(CC(C)(C)c3cc(F)cc4c3OCC4)C(F)(F)F)cccc2n1 [BOL-303242-X, (R)-1,1,1-Trifluoro-4-(5-fluoro-2,3-dihydrobenzofuran-7-yl)-4-methyl-2-{[(2-methyl-5-quinolyl)amino]methyl}pentan-2-ol]
PGE2; 0.1% topical
  PGE2 in aqueous humor at the second paracentesis, Mean: 1.452 ng/mL
  PGE2 in aqueous humor at the second paracentesis: 1.62 ng/mL and 1.88 ng/mL and 2.15 ng/mL and 0.70 ng/mL and 1.34 ng/mL and 1.03 ng/mL
  PGE2 in aqueous humor, statistical comparison with CTR: statistically significant versus CTR
PGE2; 0.5% topical
  PGE2 in aqueous humor at the second paracentesis, Mean: 1.384 ng/mL
  PGE2 in aqueous humor at the second paracentesis: 2.31 ng/mL and 2.59 ng/mL and 0.53 ng/mL and 0.75 ng/mL and 0.80 ng/mL and 1.62 ng/mL and 1.09 ng/mL
  PGE2 in aqueous humor, statistical comparison with CTR: statistically significant versus CTR
PGE2; 1% topical
  PGE2 in aqueous humor at the second paracentesis, Mean: 2.168 ng/mL
  PGE2 in aqueous humor at the second paracentesis: 0.50 ng/mL and 1.87 ng/mL and 1.71 ng/mL and 4.04 ng/mL and 1.11 ng/mL and 3.78 ng/mL
[1]
  Binding to the human glucocorticoid receptor: high affinity and selectivity
Human HMC-1 cells; read-out: IC50 (nM), CCL5/RANTES release induced by ionomycin
  IC50: 88.7 nM
Human HMC-1 cells; read-out: IC50 (nM), Interleukin-6 release induced by ionomycin
  IC50: 83.2 nM
Human HMC-1 cells; read-out: IC50 (nM), Interleukin-8 release induced by ionomycin
  IC50: 66.5 nM
Human HMC-1 cells; read-out: IC50 (nM), TNF-α release induced by ionomycin
  IC50: 43.8 nM
[2]; 100 nM
  Eotaxin-3 level induced by IL-4 plus TNF-α: significant elevation of eotaxin-3
[2]; 10, 30, 300 and 1000 nM
  Eotaxin-3 level induced by IL-4 plus TNF-α: no effect
[2]; 10-1000 nM
  IL-8 level induced by IL-4 plus TNF-α: no effect
[2]; 30, 100, 300 and 1000 nM
  IP-10 level induced by IL-4 plus TNF-α: significantly inhibited
[2]; 300 and 1000 nM
  IL-6 level induced by IL-4 plus TNF-α: significantly reduced
[2]; all doses 10-1000 nM
  CTACK level induced by IL-4 plus TNF-α: significant reduction
  G-CSF level induced by IL-4 plus TNF-α: significantly elevated
  GM-CSF level induced by IL-4 plus TNF-α: significant reduction
  MCP-1 level induced by IL-4 plus TNF-α: significant reduction
  RANTES level induced by IL-4 plus TNF-α: significant reduction
Normotensive rabbits
  Ability to increase intraocular pressure compared to dexamethasone: reduced ability to increase intraocular pressure

Reference: US20110104159A1, “COMPOSITIONS AND METHODS FOR TREATING, CONTROLLING, REDUCING, AMELIORATING, OR PREVENTING ALLERGY” (priority 2006, published 2011)
